Where two headings read alike, the source gives them in different places.
How the values were obtained:
Format in all cases: biochemical
p110α/p85α = p110α/p85α (Homo sapiens (Human), UniProt P42336); assay: PI 3-Kinase (human) HTRF assay, p110α/p85α; conditions: read-out: PI3K α IC50
p110β/p85α = p110β/p85α (Homo sapiens (Human), UniProt P42338); assay: PI 3-Kinase (human) HTRF assay, p110β/p85α; conditions: read-out: PI3K β IC50
p110γ = p110γ (Homo sapiens (Human), UniProt P48736); assay: PI 3-Kinase (human) HTRF assay, p110γ; conditions: read-out: PI3K γ IC50
Chain of p110γ (P48736 whole entry): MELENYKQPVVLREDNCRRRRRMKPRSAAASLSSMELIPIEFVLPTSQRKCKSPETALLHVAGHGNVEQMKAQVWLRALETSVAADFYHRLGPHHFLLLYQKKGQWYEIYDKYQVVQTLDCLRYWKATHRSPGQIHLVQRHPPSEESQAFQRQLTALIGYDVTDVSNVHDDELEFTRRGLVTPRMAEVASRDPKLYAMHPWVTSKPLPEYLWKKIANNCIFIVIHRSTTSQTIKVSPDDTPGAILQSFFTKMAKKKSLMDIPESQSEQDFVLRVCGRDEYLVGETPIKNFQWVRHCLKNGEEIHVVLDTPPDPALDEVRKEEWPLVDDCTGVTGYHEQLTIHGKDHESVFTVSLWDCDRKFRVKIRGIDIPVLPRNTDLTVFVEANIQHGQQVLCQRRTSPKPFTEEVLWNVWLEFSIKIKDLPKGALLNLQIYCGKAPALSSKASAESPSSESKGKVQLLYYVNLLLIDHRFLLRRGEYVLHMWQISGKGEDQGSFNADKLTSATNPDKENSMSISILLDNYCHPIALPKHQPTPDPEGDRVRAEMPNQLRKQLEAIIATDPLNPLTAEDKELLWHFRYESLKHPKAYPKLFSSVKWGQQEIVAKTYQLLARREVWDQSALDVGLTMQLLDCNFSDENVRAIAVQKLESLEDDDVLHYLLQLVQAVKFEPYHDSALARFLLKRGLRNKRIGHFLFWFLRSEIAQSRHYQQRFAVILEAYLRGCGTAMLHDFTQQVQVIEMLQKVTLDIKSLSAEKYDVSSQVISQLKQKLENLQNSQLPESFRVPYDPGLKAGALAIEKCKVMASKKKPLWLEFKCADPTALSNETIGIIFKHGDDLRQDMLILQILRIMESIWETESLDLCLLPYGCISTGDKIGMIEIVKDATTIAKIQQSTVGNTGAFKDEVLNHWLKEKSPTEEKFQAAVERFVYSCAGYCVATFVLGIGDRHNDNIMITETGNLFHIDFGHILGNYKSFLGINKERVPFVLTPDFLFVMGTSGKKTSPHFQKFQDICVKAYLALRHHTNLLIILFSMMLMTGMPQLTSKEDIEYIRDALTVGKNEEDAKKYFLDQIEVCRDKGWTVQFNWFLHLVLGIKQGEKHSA

Chain of p110α/p85α (P42336 whole entry): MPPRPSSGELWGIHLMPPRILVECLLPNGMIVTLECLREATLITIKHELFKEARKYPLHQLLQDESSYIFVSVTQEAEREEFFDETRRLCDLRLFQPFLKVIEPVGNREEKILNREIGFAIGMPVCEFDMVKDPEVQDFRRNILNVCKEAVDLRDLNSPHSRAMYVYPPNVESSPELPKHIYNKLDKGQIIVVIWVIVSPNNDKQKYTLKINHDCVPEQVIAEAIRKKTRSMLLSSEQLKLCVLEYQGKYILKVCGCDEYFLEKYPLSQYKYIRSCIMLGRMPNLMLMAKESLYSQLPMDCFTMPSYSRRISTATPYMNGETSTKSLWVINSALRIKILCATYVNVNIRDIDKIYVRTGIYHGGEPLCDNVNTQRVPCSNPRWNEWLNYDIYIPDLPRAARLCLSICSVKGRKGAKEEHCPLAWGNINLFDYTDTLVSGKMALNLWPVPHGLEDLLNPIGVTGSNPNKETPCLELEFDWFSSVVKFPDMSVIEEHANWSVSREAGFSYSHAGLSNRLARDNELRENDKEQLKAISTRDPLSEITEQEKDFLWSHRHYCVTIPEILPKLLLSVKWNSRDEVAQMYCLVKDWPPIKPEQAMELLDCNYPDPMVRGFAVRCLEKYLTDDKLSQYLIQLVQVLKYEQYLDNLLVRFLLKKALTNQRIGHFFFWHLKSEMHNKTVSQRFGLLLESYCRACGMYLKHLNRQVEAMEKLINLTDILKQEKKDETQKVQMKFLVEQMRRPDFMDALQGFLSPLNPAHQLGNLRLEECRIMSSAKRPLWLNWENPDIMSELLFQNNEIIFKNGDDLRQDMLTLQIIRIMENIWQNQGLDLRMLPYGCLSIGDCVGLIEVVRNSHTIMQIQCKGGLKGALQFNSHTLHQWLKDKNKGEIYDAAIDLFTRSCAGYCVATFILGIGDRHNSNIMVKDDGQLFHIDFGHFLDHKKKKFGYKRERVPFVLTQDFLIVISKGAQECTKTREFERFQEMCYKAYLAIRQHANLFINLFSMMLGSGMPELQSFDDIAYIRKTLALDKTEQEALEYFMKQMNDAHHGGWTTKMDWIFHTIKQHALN
Chain of p110α/p85α (P27986 whole entry partner): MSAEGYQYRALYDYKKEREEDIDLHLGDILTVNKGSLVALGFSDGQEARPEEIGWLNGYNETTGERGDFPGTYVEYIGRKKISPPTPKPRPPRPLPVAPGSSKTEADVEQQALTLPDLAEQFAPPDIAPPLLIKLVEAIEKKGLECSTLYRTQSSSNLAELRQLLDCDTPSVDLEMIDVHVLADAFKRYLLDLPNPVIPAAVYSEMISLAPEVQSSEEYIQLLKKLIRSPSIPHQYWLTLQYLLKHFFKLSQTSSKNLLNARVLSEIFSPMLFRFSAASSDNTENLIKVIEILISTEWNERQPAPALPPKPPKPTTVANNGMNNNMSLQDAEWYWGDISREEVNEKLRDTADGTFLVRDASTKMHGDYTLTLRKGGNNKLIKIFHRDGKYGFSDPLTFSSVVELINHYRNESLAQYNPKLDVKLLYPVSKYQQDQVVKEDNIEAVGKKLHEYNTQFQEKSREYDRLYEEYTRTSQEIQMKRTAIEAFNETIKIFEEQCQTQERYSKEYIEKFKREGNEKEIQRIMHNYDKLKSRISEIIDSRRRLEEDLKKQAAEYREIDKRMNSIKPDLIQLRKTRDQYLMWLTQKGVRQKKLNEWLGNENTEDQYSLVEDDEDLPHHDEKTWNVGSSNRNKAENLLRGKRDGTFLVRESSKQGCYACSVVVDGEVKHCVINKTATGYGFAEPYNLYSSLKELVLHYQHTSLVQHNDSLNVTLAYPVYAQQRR
Chain of p110β/p85α (P42338 whole entry): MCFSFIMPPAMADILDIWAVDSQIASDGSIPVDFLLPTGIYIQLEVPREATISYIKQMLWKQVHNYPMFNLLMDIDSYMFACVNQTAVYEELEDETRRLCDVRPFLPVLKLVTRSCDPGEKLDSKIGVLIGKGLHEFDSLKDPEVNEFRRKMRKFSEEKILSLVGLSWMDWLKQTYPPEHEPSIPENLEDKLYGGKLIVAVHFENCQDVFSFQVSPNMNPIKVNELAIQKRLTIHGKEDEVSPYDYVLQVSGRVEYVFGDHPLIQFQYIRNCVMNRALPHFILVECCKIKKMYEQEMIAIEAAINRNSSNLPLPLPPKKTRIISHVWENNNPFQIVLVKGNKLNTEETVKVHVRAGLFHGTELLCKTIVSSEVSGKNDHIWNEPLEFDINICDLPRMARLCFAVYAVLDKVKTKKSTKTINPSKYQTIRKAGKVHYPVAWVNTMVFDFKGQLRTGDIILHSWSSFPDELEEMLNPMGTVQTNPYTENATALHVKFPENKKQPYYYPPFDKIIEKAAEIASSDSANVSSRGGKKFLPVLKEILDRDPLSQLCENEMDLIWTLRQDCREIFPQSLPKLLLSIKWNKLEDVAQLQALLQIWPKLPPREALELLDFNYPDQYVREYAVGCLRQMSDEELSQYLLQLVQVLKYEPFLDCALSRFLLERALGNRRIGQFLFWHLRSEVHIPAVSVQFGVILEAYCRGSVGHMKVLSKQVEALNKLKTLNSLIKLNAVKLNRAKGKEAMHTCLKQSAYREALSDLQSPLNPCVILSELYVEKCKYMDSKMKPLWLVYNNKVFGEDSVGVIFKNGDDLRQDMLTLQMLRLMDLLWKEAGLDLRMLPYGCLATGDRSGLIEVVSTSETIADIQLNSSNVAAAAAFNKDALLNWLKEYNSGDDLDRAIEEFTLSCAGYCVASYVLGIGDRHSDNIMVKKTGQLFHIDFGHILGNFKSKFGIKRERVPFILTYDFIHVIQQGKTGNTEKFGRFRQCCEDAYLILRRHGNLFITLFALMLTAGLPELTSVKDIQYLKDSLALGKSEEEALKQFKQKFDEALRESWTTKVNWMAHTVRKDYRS
Chain of p110β/p85α (P27986 whole entry partner): as the sequence (P27986 whole entry partner) above

Row | SMILES | IC50 (p110α/p85α) [nM] | IC50 (p110β/p85α) [nM] | IC50 (p110γ) [nM] | IC50 (p110α/p85α; in vitro) [nM] | IC50 (p110β/p85α; in vitro) [nM] | IC50 (p110γ; in vitro) [nM]
1 | Nc1ncc2cc(-c3ccc4nccc(-c5ccncc5)c4c3)ccc2n1 [compound 9] | < 1000 | < 10000 | < 1000 | – | – | –
2 | Nc1nc2cc(-c3ccc4ncc(N5CCOCC5)n4n3)ccc2o1 [compound 57] | < 1000 | < 1000 | < 10000 | – | – | –
3 | CCN1CCC(n2cnc3ccc(-c4ccc5oc(N)nc5c4)cc3c2=O)CC1 [compound 73] | < 1000 | < 10000 | – | – | – | –
4 | Nc1nc2cc(-c3ccc4ncn(C5CCNCC5)c(=O)c4c3)ccc2o1 [compound 75] | < 100 | < 10000 | < 10000 | – | – | –
5 | Nc1nc2cc(-c3ccc4ncc(C(=O)N5CCOCC5)n4n3)ccc2o1 [compound 105] | < 1000 | < 10000 | < 1000 | – | – | –
6 | Nc1nc2cc(-c3ccc4ncc(C(=O)N5CCNCC5)n4c3)ccc2o1 [compound 111] | < 100 | < 10000 | – | – | – | –
7 | CN1CCN(c2cnc3ccc(-c4ccc5nc(N)oc5c4)cc3n2)CC1 [compound 118] | < 1000 | < 100 | < 10000 | – | – | –
8 | Nc1nc2ccc(-c3ccc4ncc(C(=O)N5CCOCC5)n4c3)cc2o1 [compound 124] | < 1000 | < 1000 | < 1000 | – | – | –
9 | Nc1nc2cc(-c3ccc4ncc(C(=O)N5CCOCC5)n4c3)ccc2s1 [compound 126] | < 1000 | < 10000 | < 1000 | – | – | –
10 | CN1CCN(c2cnc3ccc(-c4ccc5sc(N)nc5c4)cc3n2)CC1 [compound 127] | < 1000 | < 100 | < 10000 | – | – | –
11 | CN1CCCN(c2cnc3ccc(-c4ccc5oc(N)nc5c4)cc3n2)CC1 [compound 136] | < 1000 | < 1000 | < 10000 | – | – | –
12 | CN1CCCN(C(=O)c2cnc3ccc(-c4ccc5oc(N)nc5c4)cn23)CC1 [compound 140] | < 1000 | < 10000 | – | – | – | –
13 | CN1CCN(C(=O)c2cnc3ccc(-c4ccc5sc(N)nc5c4)cn23)CC1 [compound 144] | < 1000 | < 10000 | – | – | – | –
14 | CN1CCN(C(=O)c2cnc3ccc(-c4ccc5nc(N)oc5c4)cn23)CC1 [compound 145] | < 1000 | < 10000 | < 10000 | – | – | –
15 | CN1CCN(C(=O)c2cnc3ccc(-c4ccc5nc(N)sc5c4)cn23)CC1 [compound 146] | < 10000 | < 10000 | – | – | – | –
16 | CC1CN(C(=O)c2cnc3ccc(-c4ccc5oc(N)nc5c4)cn23)CCN1 (stereo not shown) [compound 164] | < 1000 | < 1000 | – | – | – | –

Row | SMILES | IC50 (p110α/p85α) [nM] | IC50 (p110β/p85α) [nM] | IC50 (p110γ) [nM] | IC50 (p110α/p85α; in vitro) [nM] | IC50 (p110β/p85α; in vitro) [nM] | IC50 (p110γ; in vitro) [nM]
17 | CN(CCN1CCOCC1)c1cnc2ccc(-c3ccc4oc(N)nc4c3)cc2n1 [compound 166] | < 1000 | < 10000 | < 10000 | – | – | –
18 | Nc1nc2cc(-c3ccc4ncc(-c5ccccn5)nc4c3)ccc2o1 [compound 195] | < 1000 | < 10000 | < 100 | – | – | –
19 | Nc1nc2cc(-c3ccc4ncc(C(=O)N5CCCCC5)n4c3)ccc2o1 [compound 196] | < 1000 | < 10000 | < 10000 | – | – | –
20 | Nc1nc2cc(-c3ccc4ncc(C(=O)N5CCC(N)CC5)n4c3)ccc2o1 [compound 204] | – | – | – | < 100 | < 1000 | –
21 | Nc1nc2cc(-c3ccc4nnc(-c5ccncc5)n4c3)ccc2o1 [compound 229] | – | – | – | < 1000 | < 1000 | < 10000
22 | CC(=O)Nc1nc2ccc(-c3ccc4nc(N)oc4c3)cc2s1 [compound 242] | – | – | – | < 100 | < 100 | < 100
23 | Nc1nc2ccc(-c3ccc4nc(N)sc4c3)cc2o1 [compound 243] | – | – | – | < 1000 | < 100 | < 100
24 | Nc1cn2cc(-c3ccc4oc(N)nc4c3)ccc2n1 [compound 245] | – | – | – | < 1000 | < 10000 | < 1000
25 | Nc1cn2cc(-c3ccc4nc(N)oc4c3)ccc2n1 [compound 247] | – | – | – | – | < 10000 | < 10000
26 | COCCn1cnc2ccc(-c3ccc4oc(N)nc4c3)cc2c1=O [compound 272] | – | – | – | < 1000 | < 10000 | < 10000
27 | Nc1nc2cc(-c3ccc4ncn(CCN5CCOCC5)c(=O)c4c3)ccc2o1 [compound 289] | – | – | – | < 1000 | < 10000 | < 1000
28 | Nc1nc2cc(-c3ccc4nnc(-c5cccnc5)n4c3)ccc2o1 [compound 300] | – | – | – | < 10000 | < 10000 | –
29 | Nc1nc2ccc(-c3ccc4nnc(-c5cccnc5)n4c3)cc2o1 [compound 301] | – | – | – | < 10000 | < 10000 | –
30 | C[C@H]1CN(c2cnc3ccc(-c4ccc5sc(N)nc5c4)cc3n2)CCN1 [compound 307] | – | – | – | < 1000 | < 1000 | –
31 | C[C@H]1CN(c2cnc3ccc(-c4ccc5nc(N)sc5c4)cc3n2)CCN1 [compound 308] | – | – | – | < 1000 | < 1000 | < 10000
32 | C[C@H]1CN(c2cnc3ccc(-c4ccc5nc(N)oc5c4)cc3n2)CCN1 [compound 309] | – | – | – | < 1000 | < 1000 | < 10000

— patent publication US11547697B2, “Heterocyclic compounds and uses thereof” (MILLENNIUM PHARMACEUTICALS, INC., priority 2009, dated 2023)
